Experimental data as given in patent US11345912B2, “Directed evolution of multivalent glycopeptides that tightly bind to target proteins” (Brandeis University, priority 2013, dated 2022).

Legend:
[1] = molecular target: 2G12; assay: BioLayer Interferometry (BLI) of 2G12 binding to surface-immobilized synthetic glycopeptide; conditions: Table 6; evaluated by BLI, material prepared synthetically
Procedure: Biotinylation of 10F2 glycopeptide and determination of 2G12 binding by BLI (BioLayer Interferometry): 200 μg 10F2 glycopeptide in 5.5 μL water was treated with […] of 50 mM TCEP.HCl/1M Tris-HCl buffer, pH 7.8, under argon, using the same inert gas setup employed in the click procedure. After 4.5 h, the reaction mixture was injected into HPLC (Waters Symmetry, 300 C4, 5 μm, 4.6×250 mm, 1 mL/min, 2-42% over 60 min, retention time 46.8 min).
The 2G12 binding of the resulting biotinylated glycopeptide 3 was determined using a BLItz instrument (Fortebio). Biotin-10F2 was loaded (120 sec) onto a streptavidin biosensor as a 500 nM solution in Buffer 1 (20 mM Tris pH 7.5, 150 mM NaCl, 2 mM MgSO4, 0.20 mg/mL BSA, 0.02% Tween-20). The sensor was washed with Buffer 1 for 60 sec, after which time the net response due to loading was observed as 0.2 nm. The sensor was then equilibrated with Buffer 2 (20 mM Tris pH 7.5, 150 mM NaCl, 2 mM MgSO4, 2.0 mg/mL BSA, 0.1% v/v Tween-20) for 90 sec. 2G12 (prepared in Buffer 2) was associated at several concentrations (0.5, 1, 2, 4, 8, 16, 32 nM, in random order) for 600 sec, followed by dissociation into blank Buffer 2 for 600 sec. […]

[2] = system: 2G12; assay: Binding curve and KD determination of 2G12-glycopeptide interaction (radiolabeled glycopeptide, protein G magnetic bead capture, scintillation counting); conditions: Table 6 mutational analysis, radioactive bead binding assay
Outline: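 Radiolabeled glycopeptide (<4 pmol) from PURE-system translation with click glycosylation was incubated with 100 nM 2G12 at room temperature. Complexes were captured on protein G beads and eluted at 70° C. Bound and unbound fractions were counted by scintillation, run at least in triplicate, and KD derived from binding curves.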

Structure (SMILES) | Kd [1] | Fmax [%] [2] | Kd ([2]; ribosomally translated)
CC[C@H](C)[C@H](NC(=O)[C@@H](NC(=O)[C@@H](NC(=O)[C@H](Cc1c[nH]cn1)NC(=O)[C@H](CC(N)=O)NC(=O)[C@H](CC(=O)O)NC(=O)[C@H](CCc1cn(C2CCC(OC3O[C@H](CO[C@H]4O[C@H](CO[C@H]5O[C@H](CO)[C@@H](O)[C@H](O)[C@@H]5O[C@H]5O[C@H](CO)[C@@H](O)[C@H](O)[C@@H]5O)[C@@H](O)[C@H](O[C@H]5O[C@H](CO)[C@@H](O)[C@H](O)[C@@H]5O[C@H]5O[C@H](CO)[C@@H](O)[C@H](O)[C@@H]5O)[C@@H]4O)[C@@H](O)[C@H](O[C@H]4O[C@H](CO)[C@@H](O)[C@H](O)[C@@H]4O[C@H]4O[C@H](CO)[C@@H](O)[C@H](O)[C@@H]4O[C@H]4O[C@H](CO)[C@@H](O)[C@H](O)[C@@H]4O)[C@@H]3O)CC2)nn1)NC(=O)[C@@H](NC(=O)[C@H](CCCCN)NC(=O)[C@H](CCC(=O)O)NC(=O)[C@H](CCCNC(=N)N)NC(=O)[C@H](CCCCN)NC(=O)[C@H](C)NC(=O)[C@H](CC(N)=O)NC(=O)[C@@H](NC(=O)[C@H](CCCCN)NC(=O)[C@@H](NC(=O)[C@H](C)NC(=O)[C@H](CCc1cn(C2CCC(OC3O[C@H](CO[C@H]4O[C@H](CO[C@H]5O[C@H](CO)[C@@H](O)[C@H](O)[C@@H]5O[C@H]5O[C@H](CO)[C@@H](O)[C@H](O)[C@@H]5O)[C@@H](O)[C@H](O[C@H]5O[C@H](CO)[C@@H](O)[C@H](O)[C@@H]5O[C@H]5O[C@H](CO)[C@@H](O)[C@H](O)[C@@H]5O)[C@@H]4O)[C@@H](O)[C@H](O[C@H]4O[C@H](CO)[C@@H](O)[C@H](O)[C@@H]4O[C@H]4O[C@H](CO)[C@@H](O)[C@H](O)[C@@H]4O[C@H]4O[C@H](CO)[C@@H](O)[C@H](O)[C@@H]4O)[C@@H]3O)CC2)nn1)NC=O)[C@@H](C)O)[C@@H](C)O)[C@@H](C)O)C(C)C)[C@@H](C)O)C(=O)N[C@@H](CCc1cn(C2CCC(OC3O[C@H](CO[C@H]4O[C@H](CO[C@H]5O[C@H](CO)[C@@H](O)[C@H](O)[C@@H]5O[C@H]5O[C@H](CO)[C@@H](O)[C@H](O)[C@@H]5O)[C@@H](O)[C@H](O[C@H]5O[C@H](CO)[C@@H](O)[C@H](O)[C@@H]5O[C@H]5O[C@H](CO)[C@@H](O)[C@H](O)[C@@H]5O)[C@@H]4O)[C@@H](O)[C@H](O[C@H]4O[C@H](CO)[C@@H](O)[C@H](O)[C@@H]4O[C@H]4O[C@H](CO)[C@@H](O)[C@H](O)[C@@H]4O[C@H]4O[C@H](CO)[C@@H](O)[C@H](O)[C@@H]4O)[C@@H]3O)CC2)nn1)C(=O)N[C@@H](CCCNC(=N)N)C(=O)N[C@@H](CO)C(=O)N[C@H](C(=O)N1CCC[C@H]1C(=O)N[C@@H](Cc1c[nH]c2ccccc12)C(=O)N[C@@H](Cc1ccc(O)cc1)C(=O)N[C@H](C(=O)N[C@@H](Cc1ccc(O)cc1)C(=O)N[C@@H](CCCNC(=N)N)C(=O)N[C@@H](Cc1c[nH]c2ccccc12)C(=O)N[C@@H](CC(C)C)C(=O)N1CCC[C@H]1C(=O)N[C@@H](CC(N)=O)C(=O)NCC(=O)N[C@@H](CO)C(=O)NCC(=O)N[C@@H](CO)C(=O)NCC(=O)N[C@@H](CSC1CC(=O)N(CCC(=O)NCCOCCOCCNC(=O)CCCC[C@@H]2SC[C@@H]3NC(=O)N[C@@H]32)C1=O)C(=O)N[C@@H](C)C(=O)O)[C@@H](C)O)[C@@H](C)CC (stereo partly drawn) [Clone 10V1-C7A, XATKTNAKREKTXDNHVTIXRSIPWYTYRWLPN] | 4.4 nM | – | –
CC[C@H](C)[C@H](NC(=O)[C@H](CCC(N)=O)NC(=O)[C@H](CCCCN)NC(=O)[C@H](CC(C)C)NC(=O)[C@H](Cc1c[nH]cn1)NC(=O)[C@H](CC(C)C)NC(=O)[C@@H](NC(=O)[C@H](CC(=O)O)NC(=O)[C@H](CCc1cn(C2CCC(OC3O[C@H](CO[C@H]4O[C@H](CO[C@H]5O[C@H](CO)[C@@H](O)[C@H](O)[C@@H]5O[C@H]5O[C@H](CO)[C@@H](O)[C@H](O)[C@@H]5O)[C@@H](O)[C@H](O[C@H]5O[C@H](CO)[C@@H](O)[C@H](O)[C@@H]5O[C@H]5O[C@H](CO)[C@@H](O)[C@H](O)[C@@H]5O)[C@@H]4O)[C@@H](O)[C@H](O[C@H]4O[C@H](CO)[C@@H](O)[C@H](O)[C@@H]4O[C@H]4O[C@H](CO)[C@@H](O)[C@H](O)[C@@H]4O[C@H]4O[C@H](CO)[C@@H](O)[C@H](O)[C@@H]4O)[C@@H]3O)CC2)nn1)NC=O)[C@@H](C)O)C(=O)NCC(=O)NCC(=O)N[C@@H](CCc1cn(C2CCC(OC3O[C@H](CO[C@H]4O[C@H](CO[C@H]5O[C@H](CO)[C@@H](O)[C@H](O)[C@@H]5O[C@H]5O[C@H](CO)[C@@H](O)[C@H](O)[C@@H]5O)[C@@H](O)[C@H](O[C@H]5O[C@H](CO)[C@@H](O)[C@H](O)[C@@H]5O[C@H]5O[C@H](CO)[C@@H](O)[C@H](O)[C@@H]5O)[C@@H]4O)[C@@H](O)[C@H](O[C@H]4O[C@H](CO)[C@@H](O)[C@H](O)[C@@H]4O[C@H]4O[C@H](CO)[C@@H](O)[C@H](O)[C@@H]4O[C@H]4O[C@H](CO)[C@@H](O)[C@H](O)[C@@H]4O)[C@@H]3O)CC2)nn1)C(=O)N1CCC[C@H]1C(=O)N[C@@H](CC(N)=O)C(=O)N[C@@H](CO)C(=O)N[C@H](C(=O)N[C@H](C(=O)N[C@@H](CCC(N)=O)C(=O)N[C@@H](CCC(N)=O)C(=O)N[C@@H](CC(=O)O)C(=O)N[C@H](C(=O)N[C@@H](CCCNC(=N)N)C(=O)N[C@@H](CCc1cn(C2CCC(OC3O[C@H](CO[C@H]4O[C@H](CO[C@H]5O[C@H](CO)[C@@H](O)[C@H](O)[C@@H]5O[C@H]5O[C@H](CO)[C@@H](O)[C@H](O)[C@@H]5O)[C@@H](O)[C@H](O[C@H]5O[C@H](CO)[C@@H](O)[C@H](O)[C@@H]5O[C@H]5O[C@H](CO)[C@@H](O)[C@H](O)[C@@H]5O)[C@@H]4O)[C@@H](O)[C@H](O[C@H]4O[C@H](CO)[C@@H](O)[C@H](O)[C@@H]4O[C@H]4O[C@H](CO)[C@@H](O)[C@H](O)[C@@H]4O[C@H]4O[C@H](CO)[C@@H](O)[C@H](O)[C@@H]4O)[C@@H]3O)CC2)nn1)C(=O)N[C@H](C(=O)N[C@@H](CO)C(=O)N[C@H](C(=O)N1CCC[C@H]1C(=O)N[C@@H](Cc1ccc(O)cc1)C(=O)N[C@H](C(=O)N[C@@H](Cc1ccc(O)cc1)C(=O)N[C@H](C(=O)N[C@@H](Cc1c[nH]c2ccccc12)C(=O)N1CCC[C@H]1C(=O)NCC(=O)N[C@@H](CO)C(=O)NCC(=O)N[C@@H](CO)C(=O)N[C@@H](CC(C)C)C(=O)NCC(=O)N[C@@H](Cc1c[nH]cn1)C(=O)N[C@@H](Cc1c[nH]cn1)C(=O)N[C@@H](Cc1c[nH]cn1)C(=O)N[C@@H](Cc1c[nH]cn1)C(=O)N[C@@H](Cc1c[nH]cn1)C(=O)N[C@@H](Cc1c[nH]cn1)C(=O)N[C@@H](CCCNC(=N)N)C(=O)N[C@@H](CC(=O)O)C(=O)N[C@@H](Cc1ccc(O)cc1)C(=O)N[C@@H](CCCCN)C(=O)N[C@@H](CC(=O)O)C(=O)N[C@@H](CC(=O)O)C(=O)N[C@@H](CC(=O)O)C(=O)N[C@@H](CC(=O)O)C(=O)N[C@@H](CCCCN)C(=O)O)[C@@H](C)O)[C@@H](C)O)[C@@H](C)CC)[C@@H](C)O)C(C)C)[C@@H](C)O)[C@@H](C)CC (stereo partly drawn) [Clone 10F3-C15S] | – | 63% | 2.91 nM
